Patent US7553798B2, “Heterocyclic carboxamides with microbiocidal activity” (Syngenta Crop Protection, Inc., priority 2004, dated 2009)

SMILES	melting point
Cn1cc(C(=O)Nc2ccccc2-c2ccc(C#CC(C)(C)C)s2)c(C(F)(F)F)n1 [Compound 1ai.098, 1-methyl-3-trifluoromethyl-1H-pyrazole-4-carboxylic acid {2-[5-(3,3-dimethyl-but-1-ynyl)-thiophen-2-yl]-phenyl}-amide]	122 to 125 °C
Cn1cc(C(=O)Nc2ccccc2-n2cc(C#CC(C)(C)C)cn2)c(C(F)F)n1 [Compound 1ar.099, 3-difluoromethyl-1-methyl-1H-pyrazole-4-carboxylic acid {2-[4-(3,3-dimethyl-but-1-ynyl)-pyrazol-1-yl]-phenyl}-amide]	145 to 148 °C
